From patent publication US11766447B2, “3′3′-cyclic dinucleotide analogue comprising a cyclopentanyl modified nucleotide as sting modulator” (INSTITUTE OF ORGANIC CHEMISTRY AND BIOCHEMISTRY ASCR, V.V.I., priority 2019, dated 2023)
Where two headings read alike, the source gives them in different places. Values belong to the molecule of their own block, whether it stands above or below them.

Legend:
[1] = tested on: peripheral blood mononuclear cells (PBMC); experiment: Peripheral blood mononuclear cell (PBMC) assay; format: cell-based; conditions: 1 h with compounds, washed, 15 hour incubation, average of one to four donors
Experimental: Selected compounds were tested in an in vitro peripheral blood mononuclear cell (PBMC) assay. […] Serially diluted tested compounds were added to wells in 50 μl of cultivation medium and cell were incubated with compounds for 1 h at 37° C. with 5% CO2. Plates with cells were then spun 500 g for 5 minutes and medium was removed. Cells were washed twice with the cell culture medium by the use of centrifugation and gently resuspended in 100 μl medium without compounds. After 15 hour incubation at 37° C. with 5% CO2, the cell culture medium was collected and the levels of interferon-alpha (INF-α), interferon-gamma (INF-γ) and tumor necrosis factor-alpha (TNF-α) were determined with ProcartaPlex Assays (ThermoFisher, Waltham, USA) and MAGPIX System (Merck KGaA, Darmstadt, Germany). […] Values reported are an average of runs from one to four donors.

WT STING [2] = target: T1, WT STING (Homo sapiens, UniProt Q86WV6, H232R); experiment: 293T WT STING standard reporter assay; format: cell-based; set-up: host or cells: 293T (ATCC CRL-3216), stably transfected, with 4xISRE firefly luciferase reporter; conditions: 293T wtSTING-FL cells, ISRE firefly luciferase; no digitonin; 7 hours with compounds; 8-point curve
Source text: Two complementary oligonucleotides of the sequence […] […] […] […] […] The oligonucleotides were mixed in equal molar amounts, hybridized, and cleaved by restriction endonucleases HindIII (cat. #. R0104S, NEB, Ipswich, USA) and BglII (cat. #R0144S, NEB, Ipswich, USA). Ultimately, they were ligated into plasmid pGL4.27 (cat. #E6651, Promega, Madison, USA) linearized with the same enzymes. As result the sequence with four ISRE sites was placed upstream of the minimum promoter of firefly luciferase reporter gene.
After 5 minutes incubation at room temperature (RT), 250 μL of the mixture was added dropwise to the cells in one well. Cells were incubated 36 hours at 37° C. with 5% CO2, and then detached with 0.05% Trypsin and 0.22 g/L EDTA (both cat. #L0941, Biowest, Riverside, USA).
Transfected cells were seeded onto poly-D-lysine coated six well plates at density 50,000 cells per 1 cm^2 in DMEM medium with high glucose containing 10% heat inactivated FBS, 30 μg/mL blasticidin (cat. #ant-b1-05, InvivoGen, San Diego, USA), 0.06 mg/ml Penicillin G and 0.1 mg/ml Streptomycin Sulfate (both cat. #. L0018, Biowest, Riverside, USA). The medium was replenished every 3-4 days until visible colonies of cells resistant to blasticidin were formed.
Blasticidin resistant cells stably expressing WT STING were further transfected with […] plasmid following the same procedure as described above. […] Homogeneous culture of stably double transfected cells was prepared by limiting dilution of cells in 96 well plates and wells with cells were selected that originated from a single cell.
The medium was removed next day and three-fold serial dilutions of compounds in 100 μl medium were added to the cells. The plates with cells were incubated for 7 hours at 37° C. with 5% CO2. After 50 μl of the medium was removed, 30 μl of ONE-Glo™ Luciferase Assay System reagent (cat. #E6120, Promega, Madison, USA) was added to each well and luminescence was read on Synergy H1 (Biotek, Winooski, USA).
Target sequence in this assay (Q86WV6 whole entry H232R): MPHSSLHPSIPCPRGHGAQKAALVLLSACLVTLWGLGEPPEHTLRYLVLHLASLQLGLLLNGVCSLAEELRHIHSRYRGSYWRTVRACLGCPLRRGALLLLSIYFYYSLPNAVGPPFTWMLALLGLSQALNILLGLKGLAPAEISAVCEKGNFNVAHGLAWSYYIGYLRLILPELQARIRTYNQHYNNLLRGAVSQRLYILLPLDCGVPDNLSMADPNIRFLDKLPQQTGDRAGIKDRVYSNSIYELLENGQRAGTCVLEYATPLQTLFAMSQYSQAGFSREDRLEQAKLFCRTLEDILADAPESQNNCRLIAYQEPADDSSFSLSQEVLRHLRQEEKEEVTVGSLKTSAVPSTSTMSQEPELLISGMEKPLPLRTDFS

AQ STING (G230A-R293Q) = target: T2, AQ STING (G230A-R293Q) (Homo sapiens, UniProt Q86WV6, G230A/H232R/R293Q); experiment: Differential scanning fluorimetry (DSF) with AQ STING; format: binding; conditions: thermal shift vs apoprotein; 150 μM CDN; truncated human AQ STING 0.1 mg/ml
T2 construct: 8xHis (N, cleaved yes); SUMO (N, cleaved yes); made in house; host or cells: E. coli Rosetta-gami B (DE3)
T2 sequence (Q86WV6 140-343 G230A/H232R/R293Q): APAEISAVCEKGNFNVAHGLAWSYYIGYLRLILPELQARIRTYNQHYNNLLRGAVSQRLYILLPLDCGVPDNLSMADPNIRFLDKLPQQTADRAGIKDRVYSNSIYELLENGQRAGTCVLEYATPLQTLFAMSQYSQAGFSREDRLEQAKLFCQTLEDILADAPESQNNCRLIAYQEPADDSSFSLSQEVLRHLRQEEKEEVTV
Method in brief: (§1)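 […] STING proteins, alone or with CDNs, in triplicate, thermally denatured on a real-time PCR cycler. Denaturing temperatures taken from first-derivative curves; shift = mean Tm of STING–CDN complex minus mean Tm of apoprotein.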

WT STING [3] = target: T1, WT STING; experiment: Digitonin assay using 293T wtSTING-FL reporter cells; format: cell-based; set-up: host or cells: 293T (ATCC CRL-3216), stably transfected, with 4xISRE firefly luciferase reporter; conditions: 293T wtSTING-FL cells, ISRE firefly luciferase; compounds in Digitonin buffer 30 minutes, then 5 hours; 8-point curve
Target sequence in this assay (Q86WV6 whole entry H232R): as the sequence (Q86WV6 whole entry H232R) above

WT STING [4] = target: T1, WT STING; experiment: Differential scanning fluorimetry (DSF) with WT STING; format: binding; set-up: 8xHis (N, cleaved yes); SUMO (N, cleaved yes); made in house; host or cells: E. coli Rosetta-gami B (DE3); conditions: thermal shift vs apoprotein; 150 μM CDN; truncated human WT STING 0.1 mg/ml
Method in brief: as §1
Target sequence in this assay (Q86WV6 140-343 H232R): as the sequence (Q86WV6 140-343 G230A/H232R/R293Q) above, with A91G, Q154R counted along it

[5] = PBMC, interferon-alpha level, read-out: PBMC EC50 (μM) IFN-α
[6] = PBMC, interferon-gamma level, read-out: PBMC EC50 (μM) IFN-γ
[7] = PBMC, tumor necrosis factor-alpha level, read-out: PBMC EC50 (μM) TNF-α

- EC50 (WT STING [2]): 10 nM
Molecule: CC(C)(C)C(=O)OCOP1(=O)OC[C@H]2C[C@@H](n3cnc4c(N)ncnc43)C(F)[C@H]2OP(=O)(OCOC(=O)C(C)(C)C)OC[C@H]2O[C@@H](n3cnc4c(N)ncnc43)[C@@H](F)C2O1 (single isomer, unassigned) [Compound 136d]
- EC50 [1, 5]: 0.9 µM
- EC50 [1, 6]: 2.4 µM
- EC50 [1, 7]: 0.8 µM

- EC50 (WT STING [2]): 60 nM
Molecule: CC(C)(C)C(=O)OCOP1(=O)OC[C@H]2C[C@@H](n3cnc4c(N)ncnc43)C(F)[C@H]2OP(=O)(OCOC(=O)C(C)(C)C)OC[C@H]2O[C@@H](n3cnc4c(N)ncnc43)[C@@H](F)C2O1 (single isomer, unassigned) [Compound 136b]

- ΔTm at 150 µM (AQ STING (G230A-R293Q)): 16.7 °C
- EC50 (WT STING [3]): 10 nM
- ΔTm at 150 µM (WT STING [4]): 7.6 °C
Molecule: Nc1ncnc2c1ncn2[C@@H]1O[C@@H]2COP(=O)(O)OC3C(O)[C@H](n4cnc5c(=O)[nH]cnc54)C[C@@H]3COP(=O)(O)OC2C1F (stereo partly drawn) [Compound 107, 9-((2R,3R,3aR,7aR,9R,10S,10aR,14aR)-2-(6-amino-9H-purin-9-yl)-3-fluoro-5,10,12-trihydroxy-5,12-dioxidodecahydro-2H-cyclopenta[d]furo[3,2-j][1,3,7,9]tetraoxa[2,8]diphosphacyclododecin-9-yl)-1,9-dihydro-6H-purin-6-one]

- ΔTm at 150 µM (AQ STING (G230A-R293Q)): 7.1 °C
- EC50 (WT STING [3]): 200 nM
- ΔTm at 150 µM (WT STING [4]): 2.2 °C
Molecule: Nc1nc2c(ncn2[C@H]2CC3OP(=O)(O)OC[C@H]4O[C@@H](n5cnc6c(N)ncnc65)CC4OP(=O)(O)OC[C@H]3C2)c(=O)[nH]1 (stereo partly drawn) [Compound 117, (6R,8R,15R,17R)-17-(2-amino-6-oxo-6,9-dihydro-1H-purin-9-yl)-8-(6-amino-9H-purin-9-yl)-3,12-dihydroxy-2,4,7,11,13-pentaoxa-3λ^5,12λ^5-diphosphatricyclo[13.3.0.0^6,10]octadecane-3,12-dione]

- DSF ΔTm (° C.) AQ STING (AQ STING (G230A-R293Q)): 16.6 °C
- EC50 (WT STING [3]): 10 nM
- DSF ΔTm (° C.) WT STING (WT STING [4]): 7.6 °C
Molecule: Nc1nc2c(ncn2[C@@H]2C[C@@H]3COP(=O)(O)OC4C(F)[C@H](n5cnc6c(N)ncnc65)O[C@@H]4COP(=O)(O)OC3C2O)c(=O)[nH]1 (single isomer, unassigned) [Compound 103]

- DSF ΔTm (° C.) AQ STING (AQ STING (G230A-R293Q)): 13.2 °C
- EC50 (WT STING [3]): 200 nM
- DSF ΔTm (° C.) WT STING (WT STING [4]): 7.0 °C
Molecule: Nc1nc2c(ncn2[C@H]2CC3OP(=O)(S)OC[C@H]4O[C@@H](n5cnc6c(N)ncnc65)C(F)C4OP(=O)(S)OC[C@H]3C2)c(=O)[nH]1 (single isomer, unassigned) [Compound 129b]

- DSF ΔTm (° C.) AQ STING (AQ STING (G230A-R293Q)): 11.3 °C
- EC50 (WT STING [3]): 800 nM
- DSF ΔTm (° C.) WT STING (WT STING [4]): 3.6 °C
Molecule: Nc1nc2c(ncn2[C@@H]2C[C@@H]3COP(=O)(O)O[C@H]4[C@@H](O)[C@H](n5cnc6c(N)ncnc65)O[C@@H]4COP(=O)(O)O[C@H]3[C@H]2O)c(=O)[nH]1 [Compound 101, 2-amino-9-((2R,3R,3aS,7aR,9R,10S,10aR,14aR)-2-(6-amino-9H-purin-9-yl)-3,5,10,12-tetrahydroxy-5,12-dioxidodecahydro-2H-cyclopenta[d]furo[3,2-j][1,3,7,9]tetraoxa[2,8]diphosphacyclo-dodecin-9-yl)-1,9-dihydro-6H-purin-6-one]

- ΔTm at 150 µM (AQ STING (G230A-R293Q)): 14.8 °C
- EC50 (WT STING [3]): 10 nM
- ΔTm at 150 µM (WT STING [4]): 9.6 °C
Molecule: Nc1ncnc2c1ncn2[C@@H]1C[C@@H]2COP(=O)(S)O[C@@H]3[C@@H](COP(=O)(S)O[C@H]2[C@H]1F)C[C@@H](n1cnc2c(N)ncnc21)[C@@H]3F (single isomer, unassigned) [Compound 128a]

- EC50 (WT STING [2]): 50 nM
Molecule: CC(C)(C)C(=O)OCOP1(=O)OC[C@H]2C[C@@H](n3cnc4c(N)ncnc43)C(F)[C@H]2OP(=O)(OCOC(=O)C(C)(C)C)OC[C@H]2O[C@@H](n3cnc4c(N)ncnc43)[C@@H](F)C2O1 (single isomer, unassigned) [Compound 136c]

- EC50 (WT STING [2]): 20 nM
Molecule: CCC(C)(C)C(=O)OCOP1(=O)OC[C@H]2O[C@@H](n3cnc4c(N)ncnc43)[C@H](F)[C@@H]2OP(=O)(OCOC(=O)C(C)(C)CC)OC[C@H]2C[C@@H](n3cnc4c(N)ncnc43)[C@H](F)[C@@H]2O1 (single isomer, unassigned) [Compound 144a]

Further lines, the molecule ahead of its results:

Molecule: CCCCCCCC(=O)OCOP1(=O)OC[C@H]2O[C@@H](n3cnc4c(N)ncnc43)[C@H](F)[C@@H]2OP(=O)(OCOC(=O)CCCCCCC)OC[C@H]2C[C@@H](n3cnc4c(N)ncnc43)[C@H](F)[C@@H]2O1 (single isomer, unassigned) [Compound 146b]
- EC50 ([1]; interferon-alpha level, read-out: PBMC EC50 (μM) IFN-α): 0.02 µM
- EC50 ([1]; interferon-gamma level, read-out: PBMC EC50 (μM) IFN-γ): 0.01 µM
- EC50 ([1]; tumor necrosis factor-alpha level, read-out: PBMC EC50 (μM) TNF-α): 0.01 µM
- EC50 (WT STING [2]): 0.3 nM

Molecule: CC1(C(=O)OCOP2(=O)OC[C@H]3O[C@@H](n4cnc5c(N)ncnc54)[C@H](F)[C@@H]3OP(=O)(OCOC(=O)C3(C)CCCCC3)OC[C@H]3C[C@@H](n4cnc5c(N)ncnc54)[C@H](F)[C@@H]3O2)CCCCC1 (single isomer, unassigned) [Compound 145b]
- EC50 [1, 5]: 0.007 µM
- EC50 [1, 6]: 0.002 µM
- EC50 [1, 7]: 0.006 µM
- EC50 (WT STING [2]): 1 nM

Molecule: CC(C)OC(=O)OCOP1(=O)OC[C@H]2O[C@@H](n3cnc4c(N)ncnc43)[C@H](F)[C@@H]2OP(=O)(OCOC(=O)OC(C)C)OC[C@H]2C[C@@H](n3cnc4c(N)ncnc43)[C@H](F)[C@@H]2O1 (single isomer, unassigned) [Compound 143a]
- EC50 (WT STING [2]): 100 nM

Molecule: CC(C)(C)C(=O)OCOP1(=O)OC[C@H]2O[C@@H](n3cnc4c(N)ncnc43)C(F)C2OP(=O)(OCOC(=O)C(C)(C)C)OC[C@H]2C[C@@H](n3cnc4c(N)ncnc43)CC2O1 (single isomer, unassigned) [Compound 137b]
- EC50 (WT STING [2]): 90 nM

Molecule: CC1(C(=O)OCOP2(=O)OC[C@H]3O[C@@H](n4cnc5c(N)ncnc54)[C@H](F)[C@@H]3OP(=O)(OCOC(=O)C3(C)CCCCC3)OC[C@H]3C[C@@H](n4cnc5c(N)ncnc54)[C@H](F)[C@@H]3O2)CCCCC1 (single isomer, unassigned) [Compound 145a]
- EC50 (WT STING [2]): 120 nM

Molecule: (((2R,3R,3aR,7aR,9R,10S,10aR,14aR)-2,9-bis(6-amino-9H-purin-9-yl)-3,10-difluoro-12-hydroxy-5,12-dioxidodecahydro-2H-cyclopenta[d]furo[3,2-j][1,3,7,9]tetraoxa[2,8]diphosphacyclododecin-5-yl)oxy)methyl pivalate [Compound 135a]
- EC50 (WT STING [2]): 300 nM

Molecule: CC(C)(C)C(=O)OCOP1(=O)OC[C@H]2O[C@@H](n3cnc4c(N)ncnc43)C(F)C2OP(=O)(OCOC(=O)C(C)(C)C)OC[C@H]2C[C@@H](n3cnc4c(N)ncnc43)CC2O1 (single isomer, unassigned) [Compound 137a]
- EC50 (WT STING [2]): 200 nM
